Assay results as given in patent US20040063746A1, “Indole, azaindole and related heterocyclic ureido and thioureido piperazine derivatives” (priority 2002, published 2004).

What follows are compounds tested on HIV-1 single-round infectious reporter virus (assay: microbe, parasite or virus in culture). Details: Human immunodeficiency virus 1, HeLa, 72 h, read-out: EC50 Group from Table 1.
Assay type: cell-based
Experimental: Virus production-Human embryonic Kidney cell line, 293T, was propagated in Dulbecco's Modified Eagle Medium (Invitrogen, Carlsbad, Calif.) containing 10% fetal Bovine serum (FBS, Sigma, St. Louis, Mo.).
Virus infection—Human epithelial cell line, HeLa, expressing the HIV-1 receptor CD4 was propagated in Dulbecco's Modified Eagle Medium (Invitrogen, Carlsbad, Calif.) containing 10% fetal Bovine serum (FBS, Sigma, St. Louis, Mo.) and supplemented with 0.2 mg/mL Geneticin (Invitrogen, Carlsbad, Calif.).
Virus-Single-round infectious reporter virus was produced by co-transfecting human embryonic Kidney 293 cells with an HIV-1 envelope DNA expression vector and a proviral cDNA containing an envelope deletion mutation and the luciferase reporter gene inserted in place of HIV-1 nef sequences (Chen et al, Ref. 41). Transfections were performed using lipofectAMINE PLUS reagent as described by the manufacturer (Invitrogen, Carlsbad, Calif.).
1. HeLa CD4 cells were plated in 96 well plates at a cell density of 1×10^4 cells per well in 100 μl Dulbecco's Modified Eagle Medium containing 10% fetal Bovine serum and incubated overnight.
2. Compound was added in a 2 μl dimethylsulfoxide solution, so that the final assay concentration would be ≦10 μM.
3. 100 μl of single-round infectious reporter virus in Dulbecco's Modified Eagle Medium was then added to the plated cells and compound at an approximate multiplicity of infection (MOI) of 0.01, resulting in a final volume of 200 μl per well.
4. Virally-infected cells were incubated at 37 degrees Celsius, in a CO2 incubator, and harvested 72 h after infection.
5. Viral infection was monitored by measuring luciferase expression from viral DNA in the infected cells using a luciferase reporter gene assay kit, as described by the manufacturer (Roche Molecular Biochemicals, Indianapolis, Ind.). Infected cell supernatants were removed and 50 μl of lysis buffer was added per well. After 15 minutes, 50 μl of freshly-reconstituted luciferase assay reagent was added per well. Luciferase activity was then quantified by measuring luminescence using a Wallac microbeta scintillation counter.
7. An EC50 provides a method for comparing the antiviral potency of the compounds of this invention. The effective concentration for fifty percent inhibition (EC50) was calculated with the Microsoft Excel Xlfit curve fitting software. For each compound, curves were generated from percent inhibition calculated at 10 different concentrations by using a four paramenter logistic model (model 205). Table 1 is the key for the data in Table 2.

**Q.** With `CNC(=O)c1ccc(F)c2c(C(=O)C(=O)N3CCN(C(=O)N(C)c4ccccc4)CC3)c[nH]c12` [Example 4] as the compound, how does the EC50 read?
**A.** The EC50 was 1000 to 5000 nM.

**Q.** `CNC(=O)c1ccc(F)c2c(C(=O)C(=O)N3CCN(C(=S)N(C)C)CC3)c[nH]c12` [Example 3] was tested. Which EC50 did it give?
**A.** The EC50 was under 1000 nM.

**Q.** Which EC50 does the source give for `CNC(=O)c1ccc(F)c2c(C(=O)C(=O)N3CCN(C(=O)N4CCCC4)CC3)c[nH]c12` [Example 15] here?
**A.** The EC50 was 1000 to 5000 nM.

**Q.** For `CNC(=O)c1ccc(F)c2c(C(=O)C(=O)N3CCN(C(=O)NC(C)(C)C)CC3)c[nH]c12` [Example 7], which EC50 is on record?
**A.** Its EC50 is over 5000 nM.

**Q.** With `COC(=O)c1ccc(F)c2c(C(=O)C(=O)N3CCN(C(=O)N(C)C)CC3)c[nH]c12` [Example 1] as the compound, how does the EC50 read?
**A.** Its EC50 is 1000 to 5000 nM.

**Q.** How did the EC50 turn out when `CNC(=O)c1ccc(F)c2c(C(=O)C(=O)N3CCN(C(=O)N(C(C)C)C(C)C)CC3)c[nH]c12` [Example 6] was run?
**A.** Its EC50 is over 5000 nM.

**Q.** Which EC50 does the source give for `CCN(CC)C(=O)N1CCN(C(=O)C(=O)c2c[nH]c3c(C(=O)NC)ccc(F)c23)CC1` [Example 5] here?
**A.** Its EC50 is 1000 to 5000 nM.

**Q.** How did the EC50 turn out when `CN(C)C(=O)N1CCN(C(=O)C(=O)c2c[nH]c3c(-n4cncn4)ncc(F)c23)CC1` [Example 9] was run?
**A.** The EC50 was under 1000 nM.

**Q.** Which EC50 does the source give for `CCCCNC(=S)N1CCN(C(=O)C(=O)c2c[nH]c3c(C(=O)NC)ccc(F)c23)CC1` [Example 8] here?
**A.** Its EC50 is over 5000 nM.

**Q.** With `CNC(=O)c1ccc(F)c2c(C(=O)C(=O)N3CCN(C(=O)N(C)C)CC3)c[nH]c12` [Example 2] as the compound, how does the EC50 read?
**A.** Its EC50 is under 1000 nM.
